# Patent US11365202B2, “Antimalarial compounds, process for preparation and their use for drug resistant malaria” (Council of Scientific and Industrial Research, priority 2018, dated 2022)
# Where two headings read alike, the source gives them in different places.
# Legend:
# falcipain-2 = falcipain-2 (Plasmodium falciparum (isolate 3D7), UniProt Q8I6U4); experiment: Fluorometric assay for falcipain-2 activity; type: biochemical
# Procedure: Recombinant falcipain-2 was prepared according to the method described by Shenai et al. (J Biol Chem.; 2000, 275(37): 29000-10) and Kumar et al. (Biochem Biophys. Res Commun. 2004, 317(1), 38-45) with slight modification. Briefly, Escherichia coli M15 containing pQE30-FP-2 plasmid were grown to mid-log phase and induced with isopropyl-1-thio-b-D-galactopyranoside (IPTG, 0.5 mM) for 5 h at 37° C. Cells were harvested, washed with ice-cold 100 mM Tris-Cl, 10 mM EDTA, pH 7.4, sonicated (12 cycles of 10 s each, with cooling for 10 s between the cycles), and centrifuged at 15,000 rpm for 45 min at 4° C. The pellet was washed twice with 2.5 M urea, 20 mM Tris-Cl2.5% Triton X-100, pH 8.0; centrifuged at 15,000 rpm for 45 min at 4° C.; and solubilized in 6 M guanidine HCl, 20 mM Tris-Cl, 250 mM NaCl, 20 mM imidazole, pH 8.0 (5 ml/g of inclusion body pellet) at RT for 60 min with gentle stirring. Insoluble material was separated by centrifuging at 15,000 rpm for 60 min at 4° C. For the purification of the recombinant protein, the supernatant was incubated overnight at 4° C. with a nickel-nitrilotriacetic acid (Ni-NTA) resin. The resin was loaded on a column and washed with 10 bed volumes each of 6 M guanidine HCl, 20 mM Tris-Cl, 250 mM NaCl, pH 8.0; 8 M urea, 20 mM Tris-Cl, 500 mM NaCl, pH 8.0; and 8 M urea, 20 mM Tris-Cl, 30 mM imidazole, pH 8.0. Bound protein was eluted with 8 M urea, 20 mM Tris-Cl, 1 M imidazole, pH 8.0 and quantified by the Biocinchoninic acid assay. For the refolding, the fractions containing falcipain-2 protein were pooled in ice-cold refolding buffer: 100 mM diluted in Tris-Cl, 1 mM EDTA, 20% glycerol, 250 mM L-arginine, 1 mM GSH, 1 mM GSSG, pH 8.0 was added in a 100 fold dilution. The mixture was incubated with moderate stirring at 4° C. for 24 h, and concentrated to 25 ml using a stirred cell with a 10-kDa cut-off membrane (Pellicon XL device, Millipore) at 4° C. […] The purified and concentrated protein was quantified using Biocinchoninic acid assay. • b) Fluorometric Assay for Falcipain-2 activity:
# For screening of falcipain-2 inhibitors, a 96-well plate fluorometric assay was developed following a protocol described by Kumar et al. (Biochem Biophys Res Commun.; 2004, 317(1), 38-45) Briefly, reaction was set up in a 200 ml reaction mixture containing 100 mM NaOAc, 10 mM DTT, 6 mg enzyme and different concentrations of inhibitors, pH 5.5. 10 mM of fluorogenic substrate benzyloxycarbonyl-Phe-Arg-7-amino-4-methylcoumarin hydrochloride (ZFR-AMC) was added, and the release of 7-amino-4-methylcoumarin (AMC) was monitored (excitation 355 nm; emission 460 nm) over 30 min at RT in Perkin Elmer Victor3 multi-label counter. […] The IC50 values were calculated from curve fittings by software Workout V 2.5.
# P. falciparum 3D7 = experiment: P. falciparum growth inhibition assay, 3D7 strain; type: cell-based; conditions: Plasmodium falciparum, read-out: EC50 on P. falciparum 3D7
# Procedure: (§1) P. falciparum strain 3D7, Dd2 and 7G8 were cultured in RPMI media (Invitrogen) supplemented with 0.5% albumax and 4% haematocrit using a protocol described previously [Trager and Jensen (Science,1976; 193:673-675)]. Cultures were synchronized by repeated sorbitol treatment following Lambros and Vanderberg (J Parasitol; 1979; 65:418-420). Each growth inhibition assay was performed in triplicate and the experiment was repeated twice. Each well contained 0.5 ml of complete media [RPMI (invitrogen) with 0.5% albumax], 4% haematocrit and the parasitaemia adjusted to ˜1%; the compound added to the parasite cultures to desired final concentrations (0-100 µM) and same amount of solvent (DMSO) was added to the control wells. The cultures were allowed to grow further for 48 h. Parasite growth was assessed by DNA fluorescent dye-binding assay using SYBR green (Sigma) following Smilkstein et al (Antimicrob Agents Chemother.; 2004, 48, 1803-1806). • f) In Vitro Toxicity Assay on CHO Cells
# P. falciparum 7G8 = experiment: P. falciparum growth inhibition assay, 7G8 strain; type: cell-based; conditions: Plasmodium falciparum
# Procedure: as §1
# P. berghei = experiment: In vivo parasiticidal assay with P. berghei mice malaria model; conditions: for Complete Protection - Mice with complete parasite clearance / Survival after treatment: 4 doses of 12.5 mg/Kg of body weight, infected BALB/c mice
# Procedure: Five groups of female BALB/c mice, 6-8 weeks of age (four mice/group) were used for testing the in vivo parsiticidal and protective efficacy of different drug treatments. Mice were injected IP with 1×10^6 P. berghei infected erythrocytes. The drug treatment was initiated 5 days after inducing parasitemia; mice in a group were given 4 doses of a compound at 12.5 mg/Kg of body weight. Control mice were given solvent alone. The parasitemia was assessed everyday in thin smears of Giemsa stained RBCs from tail blood of each mouse, by counting parasitized erythrocytes in more than 10,000 erythrocytes. Time of death of the mice in each group was also monitored.
# P. falciparum Dd2 = experiment: P. falciparum growth inhibition assay, Dd2 strain; type: cell-based; conditions: Plasmodium falciparum
# Procedure: as §1
# A549 human cells = experiment: In vitro toxicity on mammalian cell culture; type: cell-based
# Chain of falcipain-2 (Q8I6U4 244-484 limits assumed): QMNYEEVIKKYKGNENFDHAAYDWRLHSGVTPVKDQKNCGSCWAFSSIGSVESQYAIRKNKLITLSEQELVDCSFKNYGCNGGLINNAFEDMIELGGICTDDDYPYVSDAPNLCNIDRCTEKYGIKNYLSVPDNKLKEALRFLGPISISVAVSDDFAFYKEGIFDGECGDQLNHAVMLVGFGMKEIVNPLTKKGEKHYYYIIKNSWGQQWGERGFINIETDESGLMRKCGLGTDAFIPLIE
smiles,measurement,setting,value
"CCOP(=O)(/C=C/C(NC(=O)[C@@H]1C[C@@H](O[C@H]2O[C@@H]3OC4(C)CC[C@H]5[C@H](C)CC[C@@H]([C@H]2C)[C@@]35OO4)CN1C(=O)OCc1ccccc1)c1ccccc1)OCC (stereo in doubt) [Compound 4, Benzyl (2S,4R)-2-(((E)-3-(diethoxyphosphoryl)-1-phenylallyl)carbamoyl)-4-(((3R,5aS, 6R,8aS,9R,10S,12R,12aR)-3,6,9-trimethyldecahydro-12H-3,12-epoxy[1,2]dioxepino[4,3-i]isochromen-10-yl)oxy)pyrrolidine-1-carboxylate]",activity against falcipain-2 enzyme (in words),falcipain-2,inactive
"CCOP(=O)(/C=C/[C@H](NC(=O)[C@H](CC(C)C)NC(=O)[C@@H]1C[C@@H](O[C@H]2O[C@@H]3OC4(C)CC[C@H]5[C@H](C)CC[C@@H]([C@H]2C)[C@@]35OO4)CN1C(=O)OCc1ccccc1)c1ccccc1)OCC (stereo in doubt) [Compound 5b, Benzyl (2S,4R)-2-(((S)-1-(((S,E)-3-(diethoxyphosphoryl)-1-phenylallyl)amino)-4-methyl-1-oxopentan-2-yl)carbamoyl)-4-(((3R,5aS,6R,8aS,9R,10S,12R,12aR)-3,6,9-trimethyldeca hydro-12H-3,12-epoxy[1,2]dioxepino[4,3-i]isochromen-10-yl)oxy)pyrrolidine-1-carboxylate]",EC50,"P. falciparum 3D7; 3D7, 48 h",6.12 nM
"CCOP(=O)(/C=C/[C@H](NC(=O)[C@H](CC(C)C)NC(=O)[C@H](CO[C@H]1O[C@@H]2OC3(C)CC[C@H]4[C@H](C)CC[C@@H]([C@H]1C)[C@@]24OO3)NC(=O)OCc1ccccc1)c1ccccc1)OCC (stereo in doubt) [Compound 3b, Benzyl ((S)-1-(((S)-1-(((S,E)-3-(diethoxyphosphoryl)-1-phenylallyl)amino)-4-methyl-1-oxopentan-2-yl)amino)-1-oxo-3-(((3R,5aS,6R,8aS,9R,10S,12R,12aR)-3,6,9-trimethyldeca hydro-12H-3,12-epoxy[1,2]dioxepino[4,3-i]isochromen-10-yl)oxy)propan-2-yl)carbamate]",EC50,"P. falciparum 3D7; 3D7, 48 h",16.7 nM
"CCOP(=O)(/C=C/[C@@H](NC(=O)[C@H](CC(C)C)NC(=O)[C@@H]1C[C@@H](O[C@H]2O[C@@H]3OC4(C)CC[C@H]5[C@H](C)CC[C@@H]([C@H]2C)[C@@]35OO4)CN1C(=O)OCc1ccccc1)c1ccccc1)OCC (stereo in doubt) [Compound 5a, Benzyl (2S,4R)-2-(((S)-1-(((R,E)-3-(diethoxyphosphoryl)-1-phenylallyl)amino)-4-methyl-1-oxopentan-2-yl)carbamoyl)-4-(((3R,5aS,6R,8aS,9R,10S,12R,12aR)-3,6,9-trimethyldeca hydro-12H-3,12-epoxy[1,2]dioxepino[4,3-i]isochromen-10-yl)oxy)pyrrolidine-1-carboxylate]",EC50,"P. falciparum 3D7; 3D7, 48 h",1.04 nM
"C[C@@H]1CC[C@H]2[C@@H](C)C(=O)O[C@@H]3O[C@@]4(C)CC[C@@H]1[C@]32OO4 [Artemisinin, reference compound]",EC50,"P. falciparum 7G8; 7G8, Chloroquine and Pyrimethamine resistant strain, in vitro culture, read-out: EC50 on P. falciparum 7G8",~18 nM
same,Complete Protection - Mice with complete parasite clearance,P. berghei,0% of treated mice
same,Survival after treatment,P. berghei,15 to 25 days
same,EC50,"P. falciparum Dd2; DD2, Chloroquine, Pyrimethamine and Mefloquine resistant strain, in vitro culture, read-out: EC50 on P. falciparum Dd2",~15 nM
same,EC50,"P. falciparum 3D7; 3D7, chloroquine-sensitive strain, in vitro culture, 48 h",~27 nM
"CCOP(=O)(/C=C/[C@@H](NC(=O)[C@H](CC(C)C)NC(=O)[C@H](CO[C@H]1O[C@@H]2OC3(C)CC[C@H]4[C@H](C)CC[C@@H]([C@H]1C)[C@@]24OO3)NC(=O)OCc1ccccc1)c1ccccc1)OCC (stereo in doubt) [Compound 3a, Benzyl ((S)-1-(((S)-1-(((R,E)-3-(diethoxyphosphoryl)-1-phenylallyl)amino)-4-methyl-1-oxopentan-2-yl)amino)-1-oxo-3-(((3R,5aS,6R,8aS,9R,10S,12R,12aR)-3,6,9-trimethyldeca hydro-12H-3,12-epoxy[1,2]dioxepino[4,3-i]isochromen-10-yl)oxy)propan-2-yl)carbamate]",EC50,"P. falciparum 3D7; 3D7, 48 h",10.9 nM
"CCOP(=O)(/C=C/C(NC(=O)[C@H](Cc1ccccc1)NC(=O)[C@H](CO[C@H]1O[C@@H]2O[C@@]3(C)CC[C@H]4[C@H](C)CC[C@@H]([C@H]1C)[C@@]24OO3)NC(=O)OCc1ccccc1)c1ccccc1)OCC (stereo partly drawn) [Compound 2, Benzyl ((2S)-1-(((2S)-1-(((E)-3-(diethoxyphosphoryl)-1-phenylallyl)amino)-1-oxo-3-phenylpropan-2-yl)amino)-1-oxo-3-(((3R,5aS,6R,8aS,9R,10S,12R,12 aR)-3,6,9-trimethyldeca hydro-12H-3,12-epoxy[1,2]dioxepino[4,3-i]isochromen-10-yl)oxy)propan-2-yl)carbamate]",protection in treated group of mice,P. berghei; 12.5 mg/kg of body weight,100%
same,Complete Protection - Mice with complete parasite clearance,P. berghei,80% of treated mice
same,Survival after treatment,P. berghei,>60 days
same,in vitro toxicity on A549 human cells (in words),A549 human cells,non-toxic
"CCOP(=O)(/C=C/C(NC(=O)[C@H](Cc1ccccc1)NC(=O)[C@H](CO[C@H]1O[C@@H]2O[C@@]3(C)CC[C@H]4[C@H](C)CC[C@@H]([C@H]1C)[C@@]24OO3)NC(=O)OCc1ccccc1)c1ccccc1)OCC (mixture of isomers) [Compound 2, Benzyl ((2S)-1-(((2S)-1-(((E)-3-(diethoxyphosphoryl)-1-phenylallyl)amino)-1-oxo-3-phenylpropan-2-yl)amino)-1-oxo-3-(((3R,5aS,6R,8aS,9R,10S,12R,12 aR)-3,6,9-trimethyldeca hydro-12H-3,12-epoxy[1,2]dioxepino[4,3-i]isochromen-10-yl)oxy)propan-2-yl)carbamate]",EC50,"P. falciparum 7G8; 7G8, read-out: EC50 on P. falciparum 7G8",0.47 nM
same,EC50,"P. falciparum Dd2; DD2, read-out: EC50 on P. falciparum Dd2",1.9 nM
same,EC50,"A549 human cells; Homo sapiens, A549, in vitro toxicity",14600 ± 175 nM
same,EC50,"P. falciparum 3D7; 3D7, 48 h",2.7 nM
"CCOP(=O)(/C=C/C(NC(=O)[C@H](CO[C@H]1O[C@@H]2O[C@@]3(C)CC[C@H]4[C@H](C)CC[C@@H]([C@H]1C)[C@@]24OO3)NC(=O)OCc1ccccc1)c1ccccc1)OCC (mixture of isomers) [Compound 1, Benzyl ((2S)-1-(((E)-3-(diethoxyphosphoryl)-1-phenylallyl)amino)-1-oxo-3-(((3R,5aS,6R, 8aS,9R,10S,12R,12aR)-3,6,9-trimethyldecahydro-12H-3,12-epoxy[1,2]dioxepino[4,3-i]isochromen-10-yl)oxy)propan-2-yl)carbamate]",IC50,falcipain-2,> 100000 nM
same,activity against falcipain-2 enzyme (in words),falcipain-2,inactive
"CCOP(=O)(/C=C/C(NC(=O)[C@H](Cc1ccccc1)NC(=O)[C@@H]1C[C@@H](O[C@H]2O[C@@H]3OC4(C)CC[C@H]5[C@H](C)CC[C@@H]([C@H]2C)[C@@]35OO4)CN1C(=O)OCc1ccccc1)c1ccccc1)OCC (stereo in doubt) [Compound 6, Benzyl (2S,4R)-2-(((2S)-1-(((E)-3-(diethoxyphosphoryl)-1-phenylallyl)amino)-1-oxo-3-phenylpropan-2-yl)carbamoyl)-4-(((3R,5aS,6R,8aS,9R,10S,12R,12aR)-3,6,9-trimethyldecahydro-12H-3,12-epoxy[1,2]dioxepino[4,3-i]isochromen-10-yl)oxy)pyrrolidine-1-carboxylate]",activity against falcipain-2 enzyme (in words),falcipain-2,inactive
"CCOP(=O)(/C=C/[C@@H](NC(=O)[C@H](Cc1ccccc1)NC(=O)[C@H](CO[C@H]1O[C@@H]2O[C@@]3(C)CC[C@H]4[C@H](C)CC[C@@H]([C@H]1C)[C@@]24OO3)NC(=O)OCc1ccccc1)c1ccccc1)OCC [Compound 2a, Benzyl ((S)-1-(((S)-1-(((R,E)-3-(diethoxyphosphoryl)-1-phenylallyl)amino)-1-oxo-3-phenylpropan-2-yl)amino)-1-oxo-3-(((3R,5aS,6R,8aS,9R,10S,12R,12aR)-3,6,9-trimethyldeca hydro-12H-3,12-epoxy[1,2]dioxepino[4,3-i]isochromen-10-yl)oxy)propan-2-yl)carbamate]",EC50,"P. falciparum 3D7; 3D7, 48 h",0.95 nM
"CCOP(=O)(/C=C/[C@H](NC(=O)[C@H](Cc1ccccc1)NC(=O)[C@H](CO[C@H]1O[C@@H]2O[C@@]3(C)CC[C@H]4[C@H](C)CC[C@@H]([C@H]1C)[C@@]24OO3)NC(=O)OCc1ccccc1)c1ccccc1)OCC [Compound 2b, Benzyl ((S)-1-(((S)-1-(((S,E)-3-(diethoxyphosphoryl)-1-phenylallyl)amino)-1-oxo-3-phenylpropan-2-yl)amino)-1-oxo-3-(((3R,5aS,6R,8aS,9R,10S,12R,12aR)-3,6,9-trimethyldeca hydro-12H-3,12-epoxy[1,2]dioxepino[4,3-i]isochromen-10-yl)oxy)propan-2-yl)carbamate]",EC50,"P. falciparum 3D7; 3D7, 48 h",2.03 nM
